# Columns and labels:
# Assay type in all cases: physicochemical
# [1] = Measuring absorption maximum of the optical absorbent in chloroform; conditions: about 10^−5 M
# Method: 1. Measuring Absorption Maximum
# The absorption maximum was evaluated by a conventional method. Specifically, the sample was dissolved in a chloroform solvent at a concentration of about 10^−5 M and then evaluated by using a measuring instrument (Agilent, Varian Cary 4000).
# [2] = Test Example 1: transmittance of optical absorption film before and after reliability evaluation (85° C., 85% relative humidity, 120 hours); conditions: for Tave 425~465 nm, Δ / Tave 466~480 nm, Δ / Tave 480~560 nm, Δ / Tmin 425~465 nm, Δ / Tmin 466~480 nm, Δ / Λmax Tmax, Δ: change rate 100×(A−B)/B; for Tmin 425~465 nm, B: silicone resin film about 6 μm; for Tmin 425~465 nm, B / Tmin 425~465 nm, A / Tmin 466~480 nm, A / Tmin 466~480 nm, B: minimum transmittance; for Tmin 425~465 nm, B / Tave 425~465 nm, B / Tave 466~480 nm, B / Tave 480~560 nm, B / Tmin 466~480 nm, B: before reliability evaluation; for Tave 425~465 nm, A / Tave 466~480 nm, A / Tave 480~560 nm, A / Tave 425~465 nm, B / Tave 466~480 nm, B / Tave 480~560 nm, B / Tmin 425~465 nm, A / Tmin 466~480 nm, A / Tmin 466~480 nm, B: silicone resin film; for Tave 425~465 nm, A / Tave 466~480 nm, A / Tave 480~560 nm, A / Tave 425~465 nm, B / Tave 466~480 nm, B / Tave 480~560 nm, B: average transmittance; for Tave 425~465 nm, A / Tave 466~480 nm, A / Tave 480~560 nm, A / Tmin 425~465 nm, A / Tmin 466~480 nm, A: after 85° C., 85% relative humidity, 120 hours
# Method: 2. Evaluation of Transmittance Spectrum
# The transmittance spectrum was measured by using a spectrophotometer (Manufacturer: Perkinelmer Co., Product Name: Lambda 750 Spectrophotometer) for a specimen obtained by cutting the measurement subject (e.g., an optical absorption film) to 10 mm and 10 mm in width and length, respectively. The transmittance spectrum was measured for each wavelength and incident angle according to the manual of the equipment. The specimen was placed on a straight line between the measuring beam and the detector of the spectrophotometer, and the transmittance spectrum was checked while changing the incident angle of the measuring beam from 0° to 40°. Unless specifically stated otherwise, the result of the transmittance spectrum in this embodiment was the result when the incident angle is 0°. The incident angle of 0° is a direction substantially parallel to the direction normal to the surface of the specimen.
# The average transmittance within a predetermined wavelength region in the transmittance spectrum was the result of measuring the transmittance of each wavelength while increasing the wavelength by 1 nm from the shortest wavelength in the wavelength region, and then calculating the arithmetic average of the measured transmittance. The maximum transmittance is the maximum one among the transmittance measured while increasing the wavelength by 1 nm. For example, the average transmittance within the wavelength range of 350 nm to 360 nm is the arithmetic average of transmittances measured at wavelengths of 350 nm, 351 nm, 352 nm, 353 nm, 354 nm, 355 nm, 356 nm, 357 nm, 358 nm, 359 nm and 360 nm and the maximum transmittance within the wavelength range of 350 nm to 360 nm is the highest transmittance among transmittances measured at wavelengths of 350 nm, 351 nm, 352 nm, 353 nm, 354 nm, 355 nm, 356 nm, 357 nm, 358 nm, 359 nm and 360 nm.
# (§1) A coating solution was prepared by mixing a silicone resin (Dow Chemical, RSN-0217) as a resin component, an optical absorbent, and a solvent (Cyclohexanone). The mixing ratio of the resin component, the optical absorbent and the solvent was 69.3:0.99:29.7 in weight ratio (Resin:Optical Absorbent:Solvent).
# (§2) The coating solution was coated on a transparent substrate (a glass substrate manufactured by SCHOTT Co.) and maintained at 140° C. for about 2 hours to form an optical absorption film having a thickness of about 6 μm. The optical absorbent of Embodiment 1, Embodiment 2 or Comparative Example 1 was used as the optical absorbent.
# Table 2 below summarizes the transmittance of the optical absorption film before and after reliability evaluation in the ultraviolet and the near infrared regions. The reliability evaluation is an evaluation of the optical absorption film maintained at 85° C. and 85% relative humidity for 120 hours. In Table 2, B means the result before performing the reliability evaluation, and A means the result after performing the reliability evaluation. In addition, in Table 2, Λmax means the transmittance at the absorption maximum.
# In Table 2, Δ is the change rate (%) of each characteristic before and after the reliability evaluation and it is a result calculated as 100×(A−B)/B, where A is a numerical value indicated under column A in Table 2, and B is a numerical value indicated under column B in Table 2. In Table 2, Tmax denotes the highest transmittance within a corresponding wavelength range, Tave denotes an average transmittance within a corresponding wavelength range, and Tmin denotes a minimum transmittance within a corresponding wavelength range.
# [3] = Measuring solubility of the optical absorbent in methylene chloride; conditions: room temperature (about 25° C.)
# Method: 3. Measuring Solubility The solubility of the optical absorbent was evaluated. Solubility was determined according to the following criteria by evaluating the solubility of the optical absorbent in the solvent (MC, Methylene Chloride) at room temperature (about 25° C.). <Solubility Criteria> • A: When the solubility is 1% by mass or more. • B: When the solubility is 0.5% by mass or more and less than 1% by mass. • C: When the solubility is 0.2% by mass or more and less than 0.5% by mass. • D: When the solubility is less than 0.2% by mass. 4. Pyrolysis Temperature (Td 5%) Analysis
# [4] = Test Example 2: absorption maximum of optical absorption film before and after high temperature and high humidity evaluation; conditions: for ΔA: 100×(Af−Ai)/Ai; for Δλ: 100×(λf−λi)/λi; for Ai (transmittance at the absorption maximum wavelength) / λi (absorption maximum wavelength): optical absorption film before being maintained at 85° C.; for Af (transmittance at the absorption maximum wavelength) / λf (absorption maximum wavelength): optical absorption film maintained at 85° C.
# Method: as §1, §2
# For the optical absorption film prepared in Test Example 1, the absorbance spectrum of the optical absorption film prepared by using the optical absorbent of Embodiment 1 is shown in FIG. 7, the absorbance spectrum of the optical absorption film prepared by using the optical absorbent of Embodiment 2 is shown in FIG. 8, and the absorbance spectrum of the optical absorption film prepared by using the optical absorbent of Comparative Example 1 is shown in FIG. 9. In FIGS. 7 to 9, A-1, A-2, and A-3 indicate evaluations of the optical absorption films of Embodiments 1 and 2 and Comparative Example 1, respectively. […] The high-temperature and high-humidity evaluation is an evaluation where the optical absorption film is maintained at a temperature of 85° C. and under a relative humidity of 85% for 120 hours.
# In Table 3, Af is the transmittance at the absorption maximum wavelength of the optical absorption film maintained at 85° C. temperature and under 85% relative humidity for 120 hours, λf is the absorption maximum wavelength at this time, and Ai is the transmittance at the absorption maximum wavelength of the optical absorption film before being maintained at 85° C. temperature and under 85% relative humidity for 120 hours. λi is the absorption maximum wavelength at this time.
# In Table 3, ΔA is a value calculated as 100×(Af−Ai)/Ai and Δλ is a value calculated as 100×(λf−λi)/λi.
# [5] = Pyrolysis temperature (Td 5%) analysis by TGA; conditions: 25° C. to 800° C., 10° C./min, nitrogen 60 cm^3/min
# Method: The Td 5% is a value obtained through Thermogravimetric Analysis (TGA). It is a value (Td 5%) at the weight loss of 95% confirmed in a temperature range of 25° C. to 800° C., with a heating rate of 10° C./min and under nitrogen (N2) atmosphere condition of 60 cm^3/min.
# Thermogravimetric analysis (TGA) was performed by using TGA N-1000 equipment manufactured by Scinco Co. The analysis was performed by using about 3 mg of the sample (optical absorbent) and the analysis was conducted at a temperature range of 25° C. to 800° C., with a temperature increase rate of 10° C./min, and under 60 cm^3/min of a nitrogen (N2) atmosphere. As for the Td pyrolysis temperature, the value(Td 5%) at 95% weight loss was used.
# [6] = 85% relative humidity, 120 hours
Compound,Absorption Maximum Wavelength [1] [nm],"Tave 425~465 nm, Δ [2] [%]","Tave 466~480 nm, Δ [2] [%]","Tave 480~560 nm, Δ [2] [%]","Tmin 425~465 nm, Δ [2] [%]","Tmin 466~480 nm, Δ [2] [%]","Λmax Tmax, Δ [2] [%]","Tmin 425~465 nm, B [2]","Tave 425~465 nm, A [2]","Tave 466~480 nm, A [2]","Tave 480~560 nm, A [2]","Tave 425~465 nm, B [2]","Tave 466~480 nm, B [2]","Tave 480~560 nm, B [2]","Tmin 425~465 nm, A [2]","Tmin 466~480 nm, A [2]","Tmin 466~480 nm, B [2]",Solubility [3],ΔA [4] [%],Δλ [4] [%],other results
CC1N(CCC[Si](C)(C)C)c2c(cc(C3=C([O-])/C(=c4/cc5c(c6ccccc46)=[N+](CCC[Si](C)(C)C)C(C)C5(C)C)C3=O)c3ccccc23)C1(C)C (stereo not shown) [Embodiment 2],772,−0.2,0,−0.1,−0.3,0.1,7,88.75,89.72,88.64,90.86,89.87,88.61,90.93,88.52,87.95,87.88,A (When the solubility is 1% by mass or more),6.8,0,"Absorption Maximum Wavelength ([1]; listed as A2): about 772 nm; Ai (transmittance at the absorption maximum wavelength) [4, 6]: 8.91%; λi (absorption maximum wavelength) [4, 6]: 765 nm; Af (transmittance at the absorption maximum wavelength) [4, 6]: 9.52%; λf (absorption maximum wavelength) [4, 6]: 765 nm; Td 5% (5% pyrolysis temperature) [5]: 260 °C"
"C/C(C1=Nc2ccc([Si](C)(C)C)cc2C1(C)C)=C1/C(=O)C(C(/C)=C2/Nc3ccc([Si](C)(C)C)cc3C2(C)C)=C1O [Comparative Example 1, reference compound]",738,0,−0.1,−0.1,0.3,−0.1,34.7,91.35,92.03,92.07,92.27,91.99,92.14,92.32,91.62,91.76,91.84,A (When the solubility is 1% by mass or more),36.7,24.4,"Absorption Maximum Wavelength ([1]; listed as A3): about 738 nm; Ai (transmittance at the absorption maximum wavelength) [4, 6]: 66.3%; λi (absorption maximum wavelength) [4, 6]: 731 nm; Af (transmittance at the absorption maximum wavelength) [4, 6]: 90.6%; λf (absorption maximum wavelength) [4, 6]: 909 nm; light absorption characteristics before and after high temperature and high humidity ([4]; optical absorption film, 85° C., 85% relative humidity, 120 hours, FIGS. 7 to 9): almost lost; Td 5% (5% pyrolysis temperature) [5]: 187 °C"
CC1N(CCC[Si](C)(C)C)c2ccc(C3=C([O-])/C(=c4\ccc5c(c4)C(C)(C)C(C)[N+]=5CCC[Si](C)(C)C)C3=O)cc2C1(C)C (stereo not shown) [Embodiment 1],652,−0.3,−0.1,−0.1,−0.2,0,8.2,89.64,90.26,89.58,91.06,90.49,89.64,91.17,89.42,89.10,89.06,A (When the solubility is 1% by mass or more),8.2,0,"Absorption Maximum Wavelength ([1]; listed as A1): about 652 nm; Ai (transmittance at the absorption maximum wavelength) [4, 6]: 6.12%; λi (absorption maximum wavelength) [4, 6]: 658 nm; Af (transmittance at the absorption maximum wavelength) [4, 6]: 6.62%; λf (absorption maximum wavelength) [4, 6]: 658 nm; Td 5% (5% pyrolysis temperature) [5]: 247 °C"

# — US12566283B2, “Optical absorbent” (LMS CO., LTD., priority 2022, dated 2026)
